In the NIST ThermoML archive (doi:10.1021/je400423u):

Assay: xn = mol fraction of the nth substance listed
Conditions: 101 kPa, Liquid; for mass density: Vibrating tube method; for viscosity: Falling or rolling sphere viscometry

CC(C)CO [2-methyl-1-propanol] + CCC(C)O
Conditions	mass density [kg/m3]	viscosity [mPa·s]
303.15 K, x2 = 0.1009	794.484	–
303.15 K, x2 = 0.2	794.891	–
303.15 K, x2 = 0.3008	795.309	–
303.15 K, x2 = 0.4	795.723	–
303.15 K, x2 = 0.5002	796.151	–
303.15 K, x2 = 0.5999	796.585	–
303.15 K, x2 = 0.7004	797.029	–
303.15 K, x2 = 0.8007	797.475	–
303.15 K, x2 = 0.9005	797.918	–
308.15 K, x2 = 0.1009	790.501	2.443
308.15 K, x2 = 0.2	790.872	2.386
308.15 K, x2 = 0.3008	791.253	2.337
308.15 K, x2 = 0.4	791.633	2.292
308.15 K, x2 = 0.5002	792.024	2.248
308.15 K, x2 = 0.5999	792.423	2.206
308.15 K, x2 = 0.7004	792.831	2.168
308.15 K, x2 = 0.8007	793.242	2.139
308.15 K, x2 = 0.9005	793.65	2.127
313.15 K, x2 = 0.1009	786.45	2.107
313.15 K, x2 = 0.2	786.78	2.053
313.15 K, x2 = 0.3008	787.122	2.005
313.15 K, x2 = 0.4	787.465	1.962
313.15 K, x2 = 0.5002	787.818	1.92
313.15 K, x2 = 0.5999	788.177	1.881
313.15 K, x2 = 0.7004	788.546	1.845
313.15 K, x2 = 0.8007	788.917	1.816
313.15 K, x2 = 0.9005	789.288	1.804
318.15 K, x2 = 0.1009	782.34	1.824
318.15 K, x2 = 0.2	782.624	1.772
318.15 K, x2 = 0.3008	782.922	1.727
318.15 K, x2 = 0.4	783.222	1.685
318.15 K, x2 = 0.5002	783.533	1.646
318.15 K, x2 = 0.5999	783.848	1.608
318.15 K, x2 = 0.7004	784.171	1.575
318.15 K, x2 = 0.8007	784.497	1.551
318.15 K, x2 = 0.9005	784.827	1.54
323.15 K, x2 = 0.1009	778.155	1.59
323.15 K, x2 = 0.2	778.391	1.544
323.15 K, x2 = 0.3008	778.641	1.5
323.15 K, x2 = 0.4	778.895	1.46
323.15 K, x2 = 0.5002	779.158	1.422
323.15 K, x2 = 0.5999	779.423	1.387
323.15 K, x2 = 0.7004	779.696	1.357
323.15 K, x2 = 0.8007	779.974	1.336
323.15 K, x2 = 0.9005	780.258	1.326
328.15 K, x2 = 0.1009	773.896	1.393
328.15 K, x2 = 0.2	774.077	1.35
328.15 K, x2 = 0.3008	774.275	1.309
328.15 K, x2 = 0.4	774.479	1.27
328.15 K, x2 = 0.5002	774.689	1.235
328.15 K, x2 = 0.5999	774.903	1.204
328.15 K, x2 = 0.7004	775.122	1.178
328.15 K, x2 = 0.8007	775.348	1.161
328.15 K, x2 = 0.9005	775.581	1.152
333.15 K, x2 = 0.1009	769.551	1.225
333.15 K, x2 = 0.2	769.674	1.186
333.15 K, x2 = 0.3008	769.816	1.148
333.15 K, x2 = 0.4	769.965	1.112
333.15 K, x2 = 0.5002	770.119	1.079
333.15 K, x2 = 0.5999	770.277	1.051
333.15 K, x2 = 0.7004	770.441	1.029
333.15 K, x2 = 0.8007	770.611	1.014
333.15 K, x2 = 0.9005	770.793	1.006
338.15 K, x2 = 0.1009	765.116	1.082
338.15 K, x2 = 0.2	765.18	1.047
338.15 K, x2 = 0.3008	765.264	1.012
338.15 K, x2 = 0.4	765.355	0.9794
338.15 K, x2 = 0.5002	765.452	0.9497
338.15 K, x2 = 0.5999	765.551	0.9246
338.15 K, x2 = 0.7004	765.654	0.9053
338.15 K, x2 = 0.8007	765.765	0.8922
338.15 K, x2 = 0.9005	765.89	0.8861
343.15 K, x2 = 0.1009	760.581	0.9613
343.15 K, x2 = 0.2	760.585	0.9301
343.15 K, x2 = 0.3008	760.608	0.8988
343.15 K, x2 = 0.4	760.64	0.8691
343.15 K, x2 = 0.5002	760.676	0.8429
343.15 K, x2 = 0.5999	760.714	0.8207
343.15 K, x2 = 0.7004	760.754	0.8035
343.15 K, x2 = 0.8007	760.802	0.7921
343.15 K, x2 = 0.9005	760.867	0.7862

CC(C)(C)O [2-methylpropan-2-ol] + CCC(C)O
Conditions	mass density [kg/m3]	viscosity [mPa·s]
308.15 K, x2 = 0	770.36	2.589
308.15 K, x2 = 0.1002	772.862	2.511
308.15 K, x2 = 0.2001	775.563	2.462
308.15 K, x2 = 0.3008	778.356	2.414
308.15 K, x2 = 0.3999	781.092	2.368
308.15 K, x2 = 0.5005	783.761	2.322
308.15 K, x2 = 0.6004	786.229	2.278
308.15 K, x2 = 0.6999	788.492	2.237
308.15 K, x2 = 0.8009	790.567	2.199
308.15 K, x2 = 0.8998	792.397	2.168
313.15 K, x2 = 0	765.07	2.089
313.15 K, x2 = 0.1002	767.728	2.032
313.15 K, x2 = 0.2001	770.539	2.001
313.15 K, x2 = 0.3008	773.423	1.97
313.15 K, x2 = 0.3999	776.226	1.941
313.15 K, x2 = 0.5005	778.999	1.912
313.15 K, x2 = 0.6004	781.558	1.886
313.15 K, x2 = 0.6999	783.915	1.863
313.15 K, x2 = 0.8009	786.091	1.843
313.15 K, x2 = 0.8998	787.978	1.828
318.15 K, x2 = 0	759.67	1.69
318.15 K, x2 = 0.1002	762.547	1.671
318.15 K, x2 = 0.2001	765.501	1.651
318.15 K, x2 = 0.3008	768.478	1.632
318.15 K, x2 = 0.3999	771.356	1.613
318.15 K, x2 = 0.5005	774.194	1.596
318.15 K, x2 = 0.6004	776.85	1.581
318.15 K, x2 = 0.6999	779.306	1.569
318.15 K, x2 = 0.8009	781.558	1.56
318.15 K, x2 = 0.8998	783.501	1.554
323.15 K, x2 = 0	754.19	1.409
323.15 K, x2 = 0.1002	757.329	1.393
323.15 K, x2 = 0.2001	760.468	1.382
323.15 K, x2 = 0.3008	763.574	1.371
323.15 K, x2 = 0.3999	766.546	1.36
323.15 K, x2 = 0.5005	769.452	1.351
323.15 K, x2 = 0.6004	772.176	1.343
323.15 K, x2 = 0.6999	774.689	1.338
323.15 K, x2 = 0.8009	776.998	1.334
323.15 K, x2 = 0.8998	778.948	1.333
328.15 K, x2 = 0	748.62	–
328.15 K, x2 = 0.1002	752.053	1.178
328.15 K, x2 = 0.2001	755.328	1.171
328.15 K, x2 = 0.3008	758.481	1.164
328.15 K, x2 = 0.3999	761.481	1.158
328.15 K, x2 = 0.5005	764.427	1.154
328.15 K, x2 = 0.6004	767.214	1.151
328.15 K, x2 = 0.6999	769.823	1.15
328.15 K, x2 = 0.8009	772.229	1.15
328.15 K, x2 = 0.8998	774.252	1.153
333.15 K, x2 = 0	742.95	–
333.15 K, x2 = 0.1002	746.671	1.007
333.15 K, x2 = 0.2001	750.068	1.003
333.15 K, x2 = 0.3008	753.262	0.9994
333.15 K, x2 = 0.3999	756.271	0.9962
333.15 K, x2 = 0.5005	759.241	0.9947
333.15 K, x2 = 0.6004	762.081	0.9943
333.15 K, x2 = 0.6999	764.795	0.996
333.15 K, x2 = 0.8009	767.312	0.9994
333.15 K, x2 = 0.8998	769.418	1.004
338.15 K, x2 = 0	737.19	–
338.15 K, x2 = 0.1002	741.149	0.8692
338.15 K, x2 = 0.2001	744.63	0.8679
338.15 K, x2 = 0.3008	747.865	0.8665
338.15 K, x2 = 0.3999	750.893	0.8654
338.15 K, x2 = 0.5005	753.913	0.8659
338.15 K, x2 = 0.6004	756.832	0.8678
338.15 K, x2 = 0.6999	759.643	0.8713
338.15 K, x2 = 0.8009	762.272	0.876
338.15 K, x2 = 0.8998	764.451	0.8813
343.15 K, x2 = 0	731.31	–
343.15 K, x2 = 0.1002	735.411	0.7586
343.15 K, x2 = 0.2001	738.998	0.7589
343.15 K, x2 = 0.3008	742.315	0.7593
343.15 K, x2 = 0.3999	745.431	0.7601
343.15 K, x2 = 0.5005	748.529	0.7616
343.15 K, x2 = 0.6004	751.539	0.7648
343.15 K, x2 = 0.6999	754.435	0.769
343.15 K, x2 = 0.8009	757.148	0.7743
343.15 K, x2 = 0.8998	759.383	0.7798
